Test results reported in patent publication KR20050021629A, “신규한 벤조플루오렌 디온계 화합물” (학교법인 이화학당, priority 2003, dated 2005).
In brackets after ≈: the same amount, converted by molar mass. Like-named read-outs stand apart in the source and are kept apart here.

What was measured:
[1] = tested on: human colon cancer cell line HCT15 (인간 결장암 세포주 (HCT15)); assay: SRB cytotoxicity test, human colon cancer cell line HCT15; format: cell-based
[2] = tested on: human central nervous system cancer cell line XF498 (인간 중추 신경계암 세포주 (XF498)); assay: SRB cytotoxicity test, human central nervous system cancer cell line XF498; format: cell-based
[3] = tested on: human melanoma cell line SK-MEL-2 (인간 흑색종암 세포주 (SK-MEL-2)); assay: SRB cytotoxicity test, human melanoma cell line SK-MEL-2; format: cell-based
[4] = tested on: human ovarian cancer cell line SK-OV-3 (인간 난소암 세포주 (SK-OV-3)); assay: SRB cytotoxicity test, human ovarian cancer cell line SK-OV-3; format: cell-based
[5] = tested on: human lung cancer cell line A549 (인간 폐암 세포주 (A549)); assay: SRB cytotoxicity test, human lung cancer cell line A549; format: cell-based
[6] = tested on: human ovarian cancer cell line (SK-OV-3) (인간 난소암 세포주(SK-OV-3)); conditions: literature (Y. S. Kim et al. 2003); cited from earlier work
[7] = HCT 15, SRB assay, 48 h incubation, read-out: ED50 (the source's name)
[8] = XF498, XF 498, SRB assay, 48 h incubation, read-out: ED50 (the source's name)
[9] = SK-MEL-2, SRB assay, 48 h incubation, read-out: ED50 (the source's name)
[10] = SK-OV-3, SRB assay, 48 h incubation, read-out: ED50 (the source's name)
[11] = A549, SRB assay, 48 h incubation, read-out: ED50 (the source's name)

Compound | IC50 [1, 7] [µg/mL] | IC50 [2, 8] [µg/mL] | IC50 [3, 9] [µg/mL] | IC50 [4, 10] [µg/mL] | IC50 [5, 11] [µg/mL] | anticancer effect compared with doxorubicin [6] | IC50 ([1]; HCT-15, 48 h, read-out: ED50) [µg/mL] | IC50 ([2]; XF498, 48 h, read-out: ED50) [µg/mL] | IC50 ([3]; SK-MEL-2, 48 h, read-out: ED50) [µg/mL] | IC50 ([4]; SK-OV-3, 48 h, read-out: ED50) [µg/mL] | IC50 ([5]; A549, 48 h, read-out: ED50) [µg/mL]
O=C1C(=O)c2c(nc3cnccn23)-c2ncccc21 [실시예 5, 1,6b,9,11-테트라아자-벤조[a]플루오렌-5,6-디온] | 0.047 (≈ 0.188 µM) | 0.03 (≈ 0.12 µM) | 0.032 (≈ 0.128 µM) | 0.02 (≈ 0.0799 µM) | 0.051 (≈ 0.204 µM) | – | – | – | – | – | –
Cc1cccn2c3c(nc12)-c1ncccc1C(=O)C3=O [실시예 1, 10-메틸-1,6b,11-트리아자-벤조[3,2-a]플루오렌-5,6-디온] | 0.044 (≈ 0.167 µM) | 0.033 (≈ 0.125 µM) | 0.11 (≈ 0.418 µM) | 0.073 (≈ 0.277 µM) | 0.054 (≈ 0.205 µM) | – | – | – | – | – | –
2-메틸-4a,10,11-트리아자-벤조[3,2-a]플루오렌-5,6-디온 | – | – | – | – | – | 독소루비신보다 항암효과가 우수함 | – | – | – | – | –
O=C1C(=O)c2c(nc3ccccn23)-c2cnncc21 [실시예 6, 2,3,6b,11-테트라아자-벤조[a]플루오렌-5,6-디온] | 0.1 (≈ 0.4 µM) | 0.12 (≈ 0.48 µM) | 0.12 (≈ 0.48 µM) | 0.2 (≈ 0.799 µM) | 0.022 (≈ 0.0879 µM) | – | – | – | – | – | –
COc1cc(C2c3cc4c(cc3C(OC3OC5COC(C)OC5C(O)C3O)C3COC(=O)C23)OCO4)cc(OC)c1O (stereo not shown) [에토포시드, reference compound] | – | – | – | – | – | – | 0.97 (≈ 1.65 µM) | 1.43 (≈ 2.43 µM) | 1.37 (≈ 2.33 µM) | 1.84 (≈ 3.13 µM) | 0.577 (≈ 0.98 µM)
Cc1ccc2nc3c(n2c1)C(=O)C(=O)c1cnncc1-3 [실시예 7, 8-메틸-2,3,6b,11-테트라아자-벤조[a]플루오렌-5,6-디온] | 0.92 (≈ 3.48 µM) | 1.77 (≈ 6.7 µM) | 1.77 (≈ 6.7 µM) | 1.01 (≈ 3.82 µM) | 3.54 (≈ 13.4 µM) | – | – | – | – | – | –
COc1cccc2c1C(=O)c1c(O)c3c(c(O)c1C2=O)C[C@@](O)(C(=O)CO)C[C@@H]3O[C@H]1C[C@H](N)[C@H](O)[C@H](C)O1 [독소루비신, reference compound] | – | – | – | – | – | – | 0.19 (≈ 0.35 µM) | 0.187 (≈ 0.344 µM) | 0.11 (≈ 0.202 µM) | 0.21 (≈ 0.386 µM) | 0.093 (≈ 0.171 µM)
O=C1C(=O)c2c(nc3ccc(Cl)cn23)-c2ncccc21 [실시예 3, 8-클로로-1,6b,11-트리아자-벤조[3,2-a]플루오렌-5,6-디온] | 0.99 (≈ 3.49 µM) | 0.45 (≈ 1.59 µM) | 0.65 (≈ 2.29 µM) | 0.55 (≈ 1.94 µM) | 0.59 (≈ 2.08 µM) | – | – | – | – | – | –
O=C1C(=O)c2c(nc3ncccn23)-c2ncccc21 [실시예 4, 1,6b,10,11-테트라아자-벤조[a]플루오렌-5,6-디온] | 0.077 (≈ 0.308 µM) | 0.081 (≈ 0.324 µM) | 0.034 (≈ 0.136 µM) | 0.061 (≈ 0.244 µM) | 0.12 (≈ 0.48 µM) | – | – | – | – | – | –
Cc1cccc2nc3c(n12)C(=O)C(=O)c1cccnc1-3 [실시예 2, 7-메틸-1,6b,11-트리아자-벤조[3,2-a]플루오렌-5,6-디온] | 0.71 (≈ 2.7 µM) | 0.2 (≈ 0.76 µM) | 1.08 (≈ 4.1 µM) | 1.04 (≈ 3.95 µM) | 0.23 (≈ 0.874 µM) | – | – | – | – | – | –
